Test results as given in patent US10071989B2, “Substituted cinnamamide derivative, preparation method and use thereof” (TASLY PHARMACEUTICAL GROUP CO., LTD., priority 2011, dated 2018).
Entries after “also recorded” stand apart in the source; their conditions may differ. Like-named read-outs stand apart in the source and are kept apart here.

What was measured:
C57BL/6 mice [1] = assay: Number of autonomic activity of mice (YLS-1A autonomic activity recorder); format: in vivo; conditions: for Number of Autonomic activity (time): 10 mg/kg intragastric once daily, counted 30 min after administration at 6th day
Method: 110 mice were randomly selected to observe the number of their autonomic activity. The mice was placed into the YLS-1A multi-functional mice autonomic activity recorder, and after 1 min of adaption, the mice's activity was counted within a time period from the end of 1st min to 4th min. 96 mice with the number of autonomic activity between 70˜140 were screened out, divided randomly into 8 groups, and intragastrically administrated with the drug compounds at a dose listed in Table 1, one time daily for 7 days consecutively. The solvent control group was administrated with 2% Tween-80 aqueous solution in the same volume. All mice were placed into the autonomic activity recorder 30 min after administration at 6th day. After 1 min of adaption, the mice's activity was counted within a time period from the end of 1st min to 4th min.
(§1) 130 mice were randomly selected to observe the number of their autonomic activity. The method was the same with that of Experiment 1. 108 mice with the number of autonomic activity between 70˜140 were screened out, divided randomly into 9 groups, and intragastrically administrated with the drug compounds at a dose listed in Table 2, one time daily for 7 days consecutively. The solvent control group was administrated with 2% Tween-80 aqueous solution in the same volume. 30 min after administration at 6th day, the number of the autonomic activity of each mouse was observed. 30 min after administration at 7th day, the immobility time in tail suspension test was observed. The method was the same with that in Experiment 1.

C57BL/6 mice [2] = assay: Depression model test of anti-blepharoptosis caused by reserpine (akinesia, blepharoptosis, shell temperature); format: in vivo; conditions: for Blepharoptosis, “out-of-circle” ratio and shell temperature after reserpine (effect in words): compared with the solvent control group; for Degree of eye-closure: score 0-4 one hour after reserpine; for responders at 10 mg/kg: Mus musculus, po, 1 h, one hour after reserpine, 7.5 cm circle, 15-second observation, read-out: “out-of-circle” ratio
Method: 120 male C57BL/6 mice were randomly selected to observe the number of their autonomic activity. The mice was placed into the YLS-1A multi-functional mice autonomic activity recorder, and after 1 min of adaption, the activity of the mice was counted within a time period from the end of 1st min to 4th min. 96 mice with the number of autonomic activity between 70˜140 were screened out, divided randomly into 8 groups, and intragastrically administrated with the drug compounds at a dose listed in Table 3, one time daily for 7 days consecutively. The solvent control group was administrated with 2% Tween-80 aqueous solution in the same volume. Except the normal control group, 30 min after the last administration, each group was injected intraperitoneally with reserpine at a dose of 4 mg/kg. Next, akinesia, blepharoptosis and shell temperature were observed.
I Akinesia: one hour after intraperitoneal injection of reserpine, the mice were placed at the center of a circle with a diameter of 7.5 cm for a 15-second observation to calculate the “out-of-circle” ratio.
II Blepharoptosis: one hour after intraperitoneal injection of reserpine, the eye closure of mice was observed and scored by the following standard: eyelids open, 0; eyelids ¼ closed, 1; eyelids 2/4 closed, 2; eyelids ¾ closed, 3; eyelids closed completely, 4.
III Shell temperature: two hours after intraperitoneal injection of reserpine, the shell temperature of the abdomen of the mice was measured.
120 C57BL/6 mice were randomly selected to observe the number of their autonomic activity. The method was the same with that of Experiment 1. 100 mice with the number of autonomic activity between 70˜140 were screened out, divided randomly into 10 groups, and intragastrically administrated with the drug compounds at a dose listed in Table 4, one time daily for 7 days consecutively. The mice in the normal group and the solvent control group were administrated with 2% Tween-80 aqueous solution in the same volume. Except the normal control group, 30 min after the last administration, each group was injected intraperitoneally with reserpine at a dose of 4 mg/kg. Next, akinesia, blepharoptosis and shell temperature were observed. Observation method was the same with that of Experiment 1.

[3] = Chinese patent application 201010169679.9; cited from earlier work
C57BL/6 mice [4] = assay: "Acquired despair" depression model of tail suspension test in mice; format: in vivo; conditions: 10 mg/kg intragastric for 7 days; compared with the solvent control group
Method: 30 min after administration at 7th day, the mice was fixed on a sustainer with a rubberized cloth at 1 cm close to the end of the tail of mice, making the mice hanged upside down. The head of the mice was about 30 cm above the table and its sight was separated from the neighboring mouse with a plate. Usually, the mice might manage to struggle in hopes of overcoming the abnormal body position. […] The accumulated immobility time within 6 min of each mouse was observed, which was regarded as “despair time”.
as §1

C57BL/6 mice [5] = assay: Forced swimming experiment in mice; format: in vivo
Method: After 1˜2 days of adaptive feed, 80 male C57BL/6 mice, aged 6˜8 weeks and weighing 18˜22 g, were placed into the YLS-1A multi-functional mice autonomic activity recorder. After 1 min of adaption, the activity of the mice was counted within a time period from the end of 1st min to 4th min. 60 mice with the number of autonomic activity between 70˜140 were screened out, divided randomly into 6 groups, and intragastrically administrated with the drug compounds at a dose listed in Table 5, one time daily for 7 days consecutively. The solvent control group was administrated with 2% Tween-80 aqueous solution in the same volume. After the administration at 6th day, the mice were placed into a cylindrical aquarium with a water depth of 10 cm and 25° C. to force the mice to swim. After 15 min, the mice were taken out, dried and returned to the cage. 24 hours later, 30 min after the last intragastrical administration, the mice were placed into a glass bottle with a diameter of 10 cm, a height of 30 cm and a water depth of 10 cm, and the temperature of the water in the bottle was at 25° C. The mice were separated with an opaque partition, so as not to influence each other. After 2 min of adaption, an accumulated immobility time from the end of 2nd min to 6th min was recorded.

mice = assay: Anti-depression effect in the tested models (overall conclusion); format: in vivo; conditions: in the tested model at the tested dose
From the text: Based on the aforesaid experiments, the following conclusion can be drawn: • 1.

[6] = Experiment 2, 10 mg/kg intragastric 7 days, reserpine 4 mg/kg i.p., abdomen, two hours after reserpine, ±SD
[7] = Experiment 2, 10 mg/kg intragastric 7 days, reserpine 4 mg/kg i.p., ±SD
[8] = Experiment 2, 10 mg/kg intragastric 7 days, reserpine 4 mg/kg i.p.

## COc1cc(/C=C/C(=O)NCC(C)C)cc2c1OCO2 [Compound I-1, N-isobutyl-5′-methoxy-3′,4′-methylenedioxy cinnamamide]
C57BL/6 mice [1]; Experiment 1, end of 1st min to 4th min
  Number of Autonomic activity (time): 113.92 ± 14.24 time
C57BL/6 mice [2]; 10 mg/kg intragastric 7 days
  Blepharoptosis, “out-of-circle” ratio and shell temperature after reserpine (effect in words): improved significantly; also recorded: remarkably improve
C57BL/6 mice [2]; Experiment 1, 10 mg/kg intragastric 7 days, reserpine 4 mg/kg i.p., abdomen, two hours after reserpine, ±SD
  Change in the shell temperature (ΔT ° C.): 2.05 ± 0.24 °C
C57BL/6 mice [2]; Experiment 1, 10 mg/kg intragastric 7 days, reserpine 4 mg/kg i.p., ±SD
  Degree of eye-closure: 2.67 ± 0.89
C57BL/6 mice [2]; [6]
  Change in the shell temperature (T ° C.): 27.80 ± 0.61 °C
C57BL/6 mice [2]; [7]
  Degree of eye-closure: 2.91 ± 0.75
C57BL/6 mice [2]; Experiment 1, 10 mg/kg intragastric 7 days, reserpine 4 mg/kg i.p.
  responders at 10 mg/kg: 17%
C57BL/6 mice [2]; [8]
  responders at 10 mg/kg: 10%
[3]
  Anti-depressive effect in animal experiments (in words): significant anti-depressive effect

## O=C(c1cc2c(c(C(F)(F)F)c1)OCO2)N1CCCCC1 [Compound I-13, 1-(5-trifluoromethyl-3,4-methylenedioxybenzoyl)-piperidine]
C57BL/6 mice [1]; 10 mg/kg intragastric, one week, compared with the solvent control group
  Effect on autonomic activity of mice (in words): had no effect
C57BL/6 mice [1]; Experiment 2
  Number of Autonomic activity (time): 87.40 ± 22.39 time
C57BL/6 mice [4]
  Effect on immobility time in tail suspension test (in words): reduce the immobility time of the mice in tail suspension test significantly; also recorded: significantly shorten the immobility time
C57BL/6 mice [2]; 10 mg/kg intragastric 7 days
  Blepharoptosis, “out-of-circle” ratio and shell temperature after reserpine (effect in words): remarkably improve; also recorded: antagonizing the decrease of shell temperature, akinesia and improving the degree of eye closure
C57BL/6 mice [2]; 10 mg/kg, compared with I-1, p<0.05, p<0.01
  Blepharoptosis, shell temperature and “out-of-circle” ratio compared with Compound I-1 (in words): significantly improved effect
C57BL/6 mice [2]; 10 mg/kg, compared with fluoxetine, p<0.05
  Improvement in eye closure and shell temperature compared with fluoxetine (in words): better effect to a certain degree
C57BL/6 mice [2]; 10 mg/kg, within the experiment
  Improving akinesia, blepharoptosis and shell temperature: ranking among the tested compounds (in words): better effects
C57BL/6 mice [2]; [6]
  Change in the shell temperature (T ° C.): 30.20 ± 0.95 °C
C57BL/6 mice [2]; [7]
  Degree of eye-closure: 0.90 ± 0.88
C57BL/6 mice [2]; [8]
  responders at 10 mg/kg: 70%
C57BL/6 mice [5]; 10 mg/kg intragastric once daily for 7 days, 30 min after last administration, end of 2nd min to 6th min
  Immobility time in the forced swimming test in mice(s): 76.00 ± 32.32 s
C57BL/6 mice [5]; within the dosage range (5-10 mg/kg), compared with the solvent control group
  Effect on immobility time in the forced swimming test (in words): shortening the immobility time; also recorded: shorten the immobility time
mice
  Anti-depression effect compared with the pharmacologic effect of I-1 (in words): increased to some degree
